Test results: PMC6787163, “Systematic Dual Targeting of Dendritic Cell C-Type Lectin Receptor DC-SIGN and TLR7 Using a Trifunctional Mannosylated Antigen” (Frontiers in Chemistry, 2019)
Values joined by “and” are separate entries in the source; they are usually repeats but may differ in a detail not shown here. Identical values can stand only once. “Also recorded” adds a separate entry of the source. Like-named read-outs stand apart in the source and are kept apart here.

Assays:
[1] = tested on: moDCs co-cultured with gp100-specific T cells; assay: Antigen presentation by moDCs to gp100-specific T cells (IFNγ ELISA); format: cell-based, human; conditions: 20 μM conjugate, 30 min pulse, overnight co-culture
Method: Lastly, antigen presentation was determined in a human T cell antigen presentation model (Figure 5D). In this assay, the potency of DCs to present the internalized gp100 antigen on the cell surface to gp100-specific T cells is analyzed. The IFNγ secretion of activated T cells upon recognition of the cell surface presented gp100 is measured. Day 5 moDCs were stimulated for 30 min, as the internalization was relatively fast, with the glycopeptides at the assay-optimized concentration of 20 μM (Supplementary Figure 1H). The constructs were washed away before overnight co-culture with gp100-specific T cells. […] The obstruction of antigen presentation was primarily seen with the B6-gp100-TLR7L contradicting the assumption that the best binding constructs will simultaneously maximize T cell activation. […]
Immature day 5 moDCs were seeded in 96-well plates (Greiner) at 50·10^3 cells/well and incubated with 20 μM of the different gp100-conjugates in the presence or absence of the TLR4 ligand LPS (10 ng/mL) or the TLR7 ligand Imiquimod (2.5 μg/mL). […] IFNγ in the supernatant was measured by sandwich ELISA according to the manufacturer's protocol (Biosource), and measured by spectrophotometric analysis on the iMarkTM Microplate Absorbance Reader (Bio-RAD) at 450 nm.

DC-SIGN S-ECD = biological target: T1, DC-SIGN S-ECD (Homo sapiens, UniProt Q9NNX6); assay: SPR direct interaction assay on oriented DC-SIGN S-ECD surface; format: binding; conditions: for Kd: SPR direct interaction, oriented tetrameric DC-SIGN ECD surface, apparent Kd
T1 construct: The ECD of DC-SIGN (residues 66–404) was overexpressed and purified as previously described; made in house
T1 sequence (Q9NNX6 66-404): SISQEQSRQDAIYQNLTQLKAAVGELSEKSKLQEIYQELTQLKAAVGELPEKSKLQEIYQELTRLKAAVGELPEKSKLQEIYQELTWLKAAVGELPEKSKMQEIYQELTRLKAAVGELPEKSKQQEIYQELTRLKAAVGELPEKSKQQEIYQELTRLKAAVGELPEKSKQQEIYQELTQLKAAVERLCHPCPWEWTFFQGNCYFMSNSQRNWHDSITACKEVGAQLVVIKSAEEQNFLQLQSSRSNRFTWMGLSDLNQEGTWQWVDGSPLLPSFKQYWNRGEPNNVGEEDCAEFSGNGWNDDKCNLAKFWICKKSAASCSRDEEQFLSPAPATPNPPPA
Method in brief: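 Tetrameric DC-SIGN ECD carrying an N-terminal StrepTagII was captured in oriented form on streptactin (2,500–3,000 RU), with a streptactin-only control cell. Glycoclusters were injected at increasing concentrations (30 μL/min) in Tris pH 8 buffer with 150 mM NaCl and 4 mM CaCl2. Apparent Kd from a 1:1 fit reflects binding to the whole surface.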

DC-SIGN on moDC = assay: Binding of biotinylated mannoside library to moDCs by flow cytometry; format: cell-based, human; conditions: 10 μM biotinylated cluster, 30 min at 4°C, streptavidin staining
Method: Next, we assessed the binding of our clusters to cellular DC-SIGN using moDCs (Figure 3B, Supplementary Figure 1B). To this end, binding of the clusters a1–a6, b1–b6, c1–c6, d1–d6, and e1–e6, decorated with a biotin handle, was determined by flow cytometry. Clusters were bound to moDCs for 30 min at 4°C. By staining using fluorophore-conjugated streptavidin and washing at 4°C, the bound clusters could be quantified by flow cytometry. […] In control experiments ligand binding to DC-SIGN was inhibited using a blocking anti-DC-SIGN antibody (Supplementary Figure 1C).
Approximately 10^5 day 5 moDCs were washed and resuspended in 100 μL culture medium (pre-cooled to 4°C). 20 μg/mL AZN-D1 (anti-DC-SIGN, in house Geijtenbeek et al., [2002]) or purified mouse anti-human CD206 antibody (Clone 19.2, BD Bioscience) was added to the moDCs and pre-incubated for 45 min on ice. Subsequently, 10 μM of the biotinylated mannoside clusters or 1 μg/mL of Lewis^Y-conjugated polyacrylamide (positive control) was added, and incubated for 30 min at 4°C. Cells were then washed with pre-cooled PBS (4°C), and stained with Alexa647-labeled streptavidin (Invitrogen^TM) in PBS supplemented with 0.5% BSA and 0.02% NaN3 (PBA) for 30 min at 4°C. Upon washing in ice-cold PBA and fixation in PBS with 0.5% PFA, the fluorescence was measured by flow cytometry (CyAn™ ADP with Summit™ Software), and further analyzed using FlowJo v10.

moDCs = assay: Internalization of biotinylated hexavalent clusters by moDCs (flow cytometry); format: cell-based, human
Method in brief: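 Immature day-5 moDCs (half gently pre-fixed with 1% PFA) loaded with 20 μM biotinylated clusters for 1 h on ice, washed, then shifted to 37°C; samples taken at time points. Surface retention read by Streptavidin-Alexa647 flow cytometry; parallel run used clusters pre-complexed with pHrodo-Avidin (2:1, 15 min, 37°C).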

CCCCOc1nc(N)c2[nH]c(=O)n(Cc3ccc(C(=O)NCCOCCOCC(=O)NCCCC[C@H](NC(=O)CNC(=O)[C@H](CCCNC(=N)N)NC(=O)[C@H](Cc4c[nH]c5ccccc45)NC(=O)[C@H](CC)NC(=O)[C@H](CC(=O)O)NC(=O)[C@H](CC(C)C)NC(=O)[C@H](CCCNC(=N)N)NC(=O)[C@H](CCC(N)=O)NC(=O)[C@H](C)NC(=O)[C@H](CCC(=O)O)NC(=O)[C@@H](NC(=O)[C@H](Cc4c[nH]c5ccccc45)NC(=O)[C@H](CCC(=O)O)NC(=O)[C@@H]4CCCN4C(=O)[C@H](Cc4ccc(O)cc4)NC(=O)[C@H](CC(C)C)NC(=O)[C@H](CCC(N)=O)NC(=O)[C@H](CCCNC(=N)N)NC(=O)[C@H](CC(N)=O)NC(=O)[C@H](C)NC(=O)[C@@H](NC(=O)[C@@H](NC(=O)[C@@H]4CCCN4C(=O)CNC(=O)[C@@H]4CCCN4C(=O)[C@H](CCC(=O)O)NC(=O)[C@H](CC(C)C)NC(=O)[C@H](Cc4ccc(O)cc4)NC(=O)[C@@H](NC(=O)[C@H](Cc4c[nH]cn4)NC(=O)[C@@H](NC(=O)[C@@H](NC(=O)[C@H](CCCCn4cc(CCC(=O)NCCCC[C@H](NC(=O)CNC(=O)[C@H](CCCCn5cc(CO[C@H]6O[C@H](CO[C@H]7O[C@H](CO)[C@@H](O)[C@H](O)[C@@H]7O)[C@@H](O)[C@H](O[C@H]7O[C@H](CO)[C@@H](O)[C@H](O)[C@@H]7O)[C@@H]6O)nn5)NC(=O)[C@H](CCCCn5cc(CO[C@H]6O[C@H](CO[C@H]7O[C@H](CO)[C@@H](O)[C@H](O)[C@@H]7O)[C@@H](O)[C@H](O[C@H]7O[C@H](CO)[C@@H](O)[C@H](O)[C@@H]7O)[C@@H]6O)nn5)NC(=O)[C@H](CCCCn5cc(CO[C@H]6O[C@H](CO[C@H]7O[C@H](CO)[C@@H](O)[C@H](O)[C@@H]7O)[C@@H](O)[C@H](O[C@H]7O[C@H](CO)[C@@H](O)[C@H](O)[C@@H]7O)[C@@H]6O)nn5)NC(=O)[C@H](CCCCn5cc(CO[C@H]6O[C@H](CO[C@H]7O[C@H](CO)[C@@H](O)[C@H](O)[C@@H]7O)[C@@H](O)[C@H](O[C@H]7O[C@H](CO)[C@@H](O)[C@H](O)[C@@H]7O)[C@@H]6O)nn5)NC(=O)[C@H](CCCCn5cc(CO[C@H]6O[C@H](CO[C@H]7O[C@H](CO)[C@@H](O)[C@H](O)[C@@H]7O)[C@@H](O)[C@H](O[C@H]7O[C@H](CO)[C@@H](O)[C@H](O)[C@@H]7O)[C@@H]6O)nn5)NC(=O)[C@H](CCCCn5cc(CO[C@H]6O[C@H](CO[C@H]7O[C@H](CO)[C@@H](O)[C@H](O)[C@@H]7O)[C@@H](O)[C@H](O[C@H]7O[C@H](CO)[C@@H](O)[C@H](O)[C@@H]7O)[C@@H]6O)nn5)NC(C)=O)C(N)=O)nn4)NC(C)=O)C(C)C)[C@@H](C)O)[C@@H](C)O)C(C)C)[C@@H](C)O)[C@@H](C)O)C(N)=O)cc3)c2n1 [E6-gp100-TLR7L]
antigen presentation (IFNγ release of activated gp100-specific T cells) [1]: increased T cell activation; also recorded: strongest antigen presentation | decrease of DC-SIGN affinity on conjugation to gp100 or gp100-TLR7L (factor) (DC-SIGN S-ECD; Kd-app of conjugate vs unconjugated cluster): about 10 | Kd (DC-SIGN S-ECD; Kdapp): 31000 nM

CC(=O)N[C@@H](CCCCn1cc(CO[C@H]2O[C@H](CO[C@H]3O[C@H](CO)[C@@H](O)[C@H](O)[C@@H]3O)[C@@H](O)[C@H](O[C@H]3O[C@H](CO)[C@@H](O)[C@H](O)[C@@H]3O)[C@@H]2O)nn1)C(=O)N[C@@H](CCCCn1cc(CO[C@H]2O[C@H](CO[C@H]3O[C@H](CO)[C@@H](O)[C@H](O)[C@@H]3O)[C@@H](O)[C@H](O[C@H]3O[C@H](CO)[C@@H](O)[C@H](O)[C@@H]3O)[C@@H]2O)nn1)C(=O)N[C@@H](CCCCn1cc(CO[C@H]2O[C@H](CO[C@H]3O[C@H](CO)[C@@H](O)[C@H](O)[C@@H]3O)[C@@H](O)[C@H](O[C@H]3O[C@H](CO)[C@@H](O)[C@H](O)[C@@H]3O)[C@@H]2O)nn1)C(=O)N[C@@H](CCCCn1cc(CO[C@H]2O[C@H](CO[C@H]3O[C@H](CO)[C@@H](O)[C@H](O)[C@@H]3O)[C@@H](O)[C@H](O[C@H]3O[C@H](CO)[C@@H](O)[C@H](O)[C@@H]3O)[C@@H]2O)nn1)C(=O)N[C@@H](CCCCn1cc(CO[C@H]2O[C@H](CO[C@H]3O[C@H](CO)[C@@H](O)[C@H](O)[C@@H]3O)[C@@H](O)[C@H](O[C@H]3O[C@H](CO)[C@@H](O)[C@H](O)[C@@H]3O)[C@@H]2O)nn1)C(=O)N[C@@H](CCCCn1cc(CO[C@H]2O[C@H](CO[C@H]3O[C@H](CO)[C@@H](O)[C@H](O)[C@@H]3O)[C@@H](O)[C@H](O[C@H]3O[C@H](CO)[C@@H](O)[C@H](O)[C@@H]3O)[C@@H]2O)nn1)C(=O)NCC(=O)N[C@@H](CCCCN)C(N)=O [E6]
binding affinity for DC-SIGN relative to B6 (fold lower) (DC-SIGN S-ECD): 3 fold | Kd (DC-SIGN S-ECD; read-out: Kdapp): 2780 nM and 2700 nM | binding to DC-SIGN on moDC (DC-SIGN on moDC): did not observe an increase in binding | internalization by moDCs (loss of surface streptavidin signal) (moDCs; 20 μM cluster, live moDCs): remains longer at the surface | uptake by immature moDCs (moDCs; after 30 min at 37°C, 20 μM cluster): 25% | internalization by moDCs (pHrodo-avidin fluorescence increase) (moDCs; clusters pre-complexed with pH-sensitive dye): endocytosed at lower rate
